Data: US8476255B2, “Histone deacetylase inhibitors” (Orchid Chemicals & Pharmaceuticals Limited, priority 2007, dated 2013)

Columns and labels:
[1] = test system: NCIH460, HCT116 and U251 cells; experiment: Anti-cancer screen, mean GI50 over cell lines; type: cell-based; conditions: mean over cell lines; read-out: Cell growth inhibition Mean GI50
How it was run: (§1)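 Seeding at 5×10^4 cells/mL preceded 24 h culture, after which compounds diluted from DMSO stocks were added at final 0.01, 0.1, 1, 10 and 100 μM for 48 h. Viability was then read by MTT (3 h, 37 °C) at A570.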

NCIH460 (lung) cells = experiment: Anti-cancer screen (MTT), NCIH460; type: cell-based; conditions: Homo sapiens, NCI-H460, NCIH460, 48 hours, MTT; for GI50: read-out: Cell growth inhibition NCIH460 (Lung) GI50; for LC50: read-out: Cell growth inhibition NCIH460 (Lung) LC50; for IC (TGI): read-out: Cell growth inhibition NCIH460 (Lung) TGI
How it was run: as §1

U251 (glioma) cells = experiment: Anti-cancer screen (MTT), U251; type: cell-based; conditions: Homo sapiens, U-251, U251, 48 hours, MTT; for GI50: read-out: Cell growth inhibition U251 (Glioma) GI50; for LC50 (concentration giving 50% net cell kill relative to the time-zero cell count): read-out: Cell growth inhibition U251 (Glioma) LC50; for IC (TGI): read-out: Cell growth inhibition U251 (Glioma) TGI
How it was run: as §1

HCT 116 (colon) cells = experiment: Anti-cancer screen (MTT), HCT 116; type: cell-based; conditions: Homo sapiens, HCT-116, HCT116, 48 hours, MTT; for GI50: read-out: Cell growth inhibition HCT116 (Colon) GI50; for CC50: read-out: Cell growth inhibition HCT116 (Colon) LC50; for IC (TGI): read-out: Cell growth inhibition HCT116 (Colon) TGI
How it was run: as §1

[2] = test system: HDAC (Mouse Liver Extract); experiment: HDAC inhibition assay using Boc-Lys(Ac)-AMC substrate; type: biochemical; conditions: mouse liver enzyme
How it was run: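 Boc-Lys(Ac)-AMC substrate incubated with mouse liver extract as HDAC source, 5 min preincubation then 30 min at 37° C. Trypsin stop solution added (37° C., 15-30 min) to release AMC, read at ex 360/em 460 nm; buffer-only and substrate-only wells as blanks.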

Row | SMILES | GI50 [1] | GI50 (NCIH460 (lung) cells) | LC50 (NCIH460 (lung) cells) | IC (TGI) (NCIH460 (lung) cells) | GI50 (U251 (glioma) cells) | LC50 (concentration giving 50% net cell kill relative to the time-zero cell count) (U251 (glioma) cells) | IC (TGI) (U251 (glioma) cells) | GI50 (HCT 116 (colon) cells) | CC50 (HCT 116 (colon) cells) | IC (TGI) (HCT 116 (colon) cells) | HDAC inhibition % (1 μM) [2] | HDAC inhibition % (10 μM) [2] | IC50 [2]
1 | COC(=O)c1ccc(/C=C(/C(=O)NCc2ccc(C(=O)Nc3ccccc3N)cc2)c2ccc(OC)cc2)cc1 [Compound 35, N-(2-Aminophenyl)-4-((3-(4-carbmethoxyphenyl)-2-(4-methoxyphenyl)acrylamido)methyl)benzamide] | 2 µM | > 100 µM | > 100 µM | > 100 µM | > 100 µM | > 100 µM | > 100 µM | 2 µM | > 100 µM | > 100 µM | 24.8% | 41.1% | –
2 | COC(=O)c1ccc(/C=C(/C(=O)NCc2ccc(C(=O)Nc3ccccc3N)cc2)c2cccs2)cc1 [Compound 36, N-(2-Aminophenyl)-4-((3-(4-carbmethoxyphenyl)-2-(thiophen-2-yl)acrylamido)methyl)benzamide] | 12.9 µM | 20 µM | > 100 µM | > 100 µM | 18 µM | 90 µM | 50 µM | 0.7 µM | > 100 µM | 35 µM | 30.5% | 31.9% | –
3 | COc1ccc(/C=C(/C(=O)NCc2ccc(C(=O)Nc3ccccc3N)cc2)c2cccs2)cc1OC [Compound 37, N-(2-Aminophenyl)-4-((3-(3,4-dimethoxyphenyl)-2-(thiophen-2-yl)acrylamido)methyl)benzamide] | 1.9 µM | 2 µM | 100 µM | 6 µM | 2.6 µM | 51 µM | 7 µM | 1.1 µM | 80 µM | 6 µM | 31.7% | 59.9% | 5 µM
4 | COC(=O)c1ccc(/C=C(/C(=O)NCc2ccc(C(=O)Nc3ccccc3N)cc2)c2ccc(F)c(F)c2)cc1 [Compound 38, N-(2-Aminophenyl)-4-((3-(4-carbmethoxyphenyl)-2-(3,4-difluorophenyl)acrylamido)methyl)benzamide] | 23.8 µM | 50 µM | > 100 µM | > 100 µM | 15 µM | > 100 µM | 70 µM | 6.5 µM | > 100 µM | 80 µM | 20.6% | 34.9% | –
5 | COc1ccc(/C=C(/C(=O)NCc2ccc(C(=O)Nc3ccccc3N)cc2)c2ccccc2)c(OC)c1 [Compound 39, N-(2-Aminophenyl)-4-((3-(2,4-dimethoxyphenyl)-2-phenylacrylamido)methyl)benzamide] | 2.4 µM | 3.2 µM | > 100 µM | > 100 µM | 3.2 µM | > 100 µM | 100 µM | 0.7 µM | > 100 µM | 80 µM | 9.1% | 18.9% | –
6 | COc1ccc(/C(=C\c2ccc(F)cc2)C(=O)NCc2ccc(C(=O)NO)cc2)cc1 [Compound 49, 4-((2-(4-Methoxyphenyl)-3-(4-fluorophenyl)acrylamido)methyl)-N-hydroxybenzamide] | 9.2 µM | 19 µM | 89 µM | 52.5 µM | 5.4 µM | 81 µM | 34.5 µM | 3.3 µM | 66 µM | 9 µM | 45.5% | 69.7% | 0.33 µM
7 | O=C(NCc1ccc(C(=O)NO)cc1)/C(=C/c1ccc(F)cc1)c1ccc(C(F)(F)F)cc1 [Compound 50, 4-((2-(4-Trifluoromethyllphenyl)-3-(4-fluorophenyl)acrylamido)methyl)-N-hydroxybenzamide] | 34.3 µM | 38 µM | 92 µM | 69 µM | 43 µM | 87 µM | 72 µM | 22 µM | 88 µM | 55 µM | 50.1% | 87.1% | –
8 | O=C(NCc1ccc(C(=O)NO)cc1)/C(=C/c1ccc(F)cc1)c1ccccc1 [Compound 51, 4-((2-(Phenyl)-3-(4-fluorophenyl)acrylamido)methyl)-N-hydroxybenzamide] | 12.5 µM | 24 µM | 86 µM | 60 µM | 6 µM | 72 µM | 48 µM | 7.5 µM | 83 µM | 36 µM | 74.5% | 90.8% | –
9 | CSc1ccc(/C=C(/C(=O)NCc2ccc(C(=O)NO)cc2)c2ccc(F)cc2)cc1 [Compound 52, 4-((2-(4-Fluorophenyl)-3-(4-methylthiophenyl)acrylamido)methyl)-N-hydroxybenzamide] | 9.2 µM | 12 µM | 82 µM | 53 µM | 10 µM | 75 µM | 54 µM | 5.6 µM | 69 µM | 9.6 µM | 83.5% | 95.7% | 0.06 µM
10 | COc1ccc(/C=C(/C(=O)NCc2ccc(C(=O)NO)cc2)c2ccc(F)cc2)cc1 [Compound 53, 4-((2-(4-Fluorophenyl)-3-(4-methoxyphenyl)acrylamido)methyl)-N-hydroxybenzamide] | 3.8 µM | 5.5 µM | 49 µM | 20 µM | 2.9 µM | 30 µM | 7 µM | 3 µM | 51 µM | 17 µM | 88.6% | 94.4% | 0.04 µM
11 | O=C(NCc1ccc(C(=O)NO)cc1)/C(=C/c1c(F)cc(F)cc1F)c1ccc(F)cc1 [Compound 54, 4-((2-(4-Fluorophenyl)-3-(2,4,6-trifluorophenyl)acrylamido)methyl)-N-hydroxybenzamide] | 10.5 µM | 8 µM | 68 µM | 24 µM | 19 µM | 64 µM | 25 µM | 4.4 µM | 59 µM | 20 µM | 67.5% | 89.8% | –
12 | CSc1ccc(/C=C(/C(=O)NCc2ccc(C(=O)NO)cc2)c2ccccc2Cl)cc1 [Compound 56, 4-((2-(2-Chlorophenyl)-3-(4-methylthiophenyl)acrylamido)methyl)-N-hydroxybenzamide] | > 100 µM | > 100 µM | > 100 µM | > 100 µM | 0.1 µM | > 100 µM | 0.1 µM | > 100 µM | > 100 µM | > 100 µM | 7.7% | 8.0% | –
13 | CSc1ccc(/C=C(/C(=O)NCc2ccc(C(=O)NO)cc2)c2ccsc2)cc1 [Compound 59, 4-((2-(Thiophen-3-yl)-3-(4-methylthiophenyl)acrylamido)methyl)-N-hydroxybenzamide] | 2.3 µM | 2.3 µM | 30 µM | 7 µM | 1.5 µM | 65 µM | 5.5 µM | 3 µM | 60 µM | 15 µM | 76.6% | 96.3% | 0.03 µM
14 | COc1cc(/C=C(/C(=O)NCc2ccc(C(=O)NO)cc2)c2ccc(F)cc2)ccc1F [Compound 60, 4-((2-(4-Fluorophenyl)-3-(4-fluoro-3-methoxyphenyl)acrylamido)methyl)-N-hydroxybenzamide] | 17.3 µM | 25 µM | 80 µM | 50 µM | 17 µM | 99 µM | 38 µM | 10 µM | 81 µM | 50 µM | 66.6% | 95.0% | –
